Results as given in patent US9567643B2, “Compositions and methods for treating cancers” (Aptose Biosciences Inc., priority 2013, dated 2017).
Counter-ions that a name gives are not always drawn.

Key:
[1] = Pharmacokinetics, serum level after i.v. bolus; assay type: in vivo; conditions: CD-1 nude mice; i.v. bolus of LOR-253 HCl at 1, 5, 15 mg/kg; FIG. 10
Protocol: To study the pharmacokinetic (PK) […], CD-1 nude mice were treated by i.v. bolus injections of LOR-253 HCl at 1, 5, and 15 mg/kg. The serum level of LOR-253 was measured.

[2] = Repeat-dose toxicity study, cardiovascular effects; assay type: in vivo; conditions: dogs, highest dose tested (data not shown)
[3] = molecular target: hERG tail current density (Homo sapiens, UniProt Q12809); assay: hERG tail current inhibition; assay type: cell-based; conditions: preclinical testing
Sequence of hERG tail current density (Q12809 whole entry): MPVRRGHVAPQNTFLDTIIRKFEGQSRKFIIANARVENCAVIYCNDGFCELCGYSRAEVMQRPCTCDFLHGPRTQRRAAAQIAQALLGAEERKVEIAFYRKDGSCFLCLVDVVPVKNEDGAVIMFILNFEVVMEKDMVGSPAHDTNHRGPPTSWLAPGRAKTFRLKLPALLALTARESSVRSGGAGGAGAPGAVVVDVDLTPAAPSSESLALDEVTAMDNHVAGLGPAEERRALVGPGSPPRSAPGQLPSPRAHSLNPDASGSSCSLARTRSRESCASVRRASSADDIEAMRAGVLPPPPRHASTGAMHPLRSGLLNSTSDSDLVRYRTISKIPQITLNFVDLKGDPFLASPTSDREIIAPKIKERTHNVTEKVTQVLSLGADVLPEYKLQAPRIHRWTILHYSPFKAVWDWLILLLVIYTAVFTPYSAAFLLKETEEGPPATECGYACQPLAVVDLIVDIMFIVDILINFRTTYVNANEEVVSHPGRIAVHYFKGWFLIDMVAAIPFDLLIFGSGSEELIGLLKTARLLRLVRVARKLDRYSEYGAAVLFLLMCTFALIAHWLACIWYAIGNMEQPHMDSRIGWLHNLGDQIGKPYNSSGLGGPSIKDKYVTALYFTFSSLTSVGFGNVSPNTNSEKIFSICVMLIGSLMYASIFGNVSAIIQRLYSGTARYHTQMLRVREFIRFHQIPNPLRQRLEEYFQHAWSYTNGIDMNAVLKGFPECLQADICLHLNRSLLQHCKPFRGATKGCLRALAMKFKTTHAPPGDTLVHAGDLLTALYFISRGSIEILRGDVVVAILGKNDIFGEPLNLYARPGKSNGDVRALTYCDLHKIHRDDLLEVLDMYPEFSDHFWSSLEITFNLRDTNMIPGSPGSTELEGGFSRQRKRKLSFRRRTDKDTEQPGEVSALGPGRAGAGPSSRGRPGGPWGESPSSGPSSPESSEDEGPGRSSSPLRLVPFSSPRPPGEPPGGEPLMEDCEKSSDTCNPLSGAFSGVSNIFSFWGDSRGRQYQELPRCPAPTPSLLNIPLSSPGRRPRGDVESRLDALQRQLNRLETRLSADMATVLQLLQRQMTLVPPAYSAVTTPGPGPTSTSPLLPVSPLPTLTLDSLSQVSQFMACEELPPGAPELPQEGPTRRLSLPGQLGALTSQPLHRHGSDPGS

[4] = tested on: CYP450 enzymes; assay: CYP450 inhibition; assay type: in vitro ADME; conditions: preclinical testing
[5] = GLP blood compatibility studies
[6] = tested on: advanced or metastatic solid tumours; assay: Open-label phase 1 dose-escalating study; assay type: in vivo
Protocol: Phase I: This was an open-label, phase 1 study to determine the maximum tolerated dose (MTD) or appropriate target dose if MTD not reached to identify the recommended phase 2 dose of LOR-253 HCl in patients with advanced or metastatic solid tumours. In the first set of doses, LOR-253 HCl was given in ascending doses until the maximum administered dose or appropriate target dose is reached. In the other set of doses, LOR-253 HCl was given in ascending doses starting from 20 mg/m2 until the maximum administered dose or appropriate target dose is reached. Patient as treated on LOR-253 HCl for 2 cycles for the evaluation. • Other Name: No other names are used. • Study Type: Interventional • Study Design: • Endpoint Classification: Safety Study • Intervention Model: Single Group Assignment • Masking: Open Label • Primary Purpose: Treatment • Official Title: Open-Label, Phase 1 Study of LOR-253 HCl in Patients With Advanced or Metastatic Solid Tumours Primary Outcome Measures: • To determine the maximum tolerated dose (MTD) or appropriate target dose if MTD not reached to identify the recommended phase 2 dose of LOR-253 HCl in patients with advanced or metastatic solid tumours. [Time Frame: 8 weeks] Secondary Outcome Measures: • To characterize the safety profile of LOR-253 HCl when administered to patients with advanced or metastatic solid tumours. [Time Frame: 8 weeks] Inclusion Criteria: • 1. Male or female 18 years of age or older. • 2. Histologically confirmed diagnosis of solid tumor for which no effective therapy is available or that is unresponsive to conventional therapy. • 3. Meet laboratory parameter requirements at study entry. Exclusion Criteria: • 1. Chemotherapy, radiotherapy, biologic therapy, immunotherapy or any other investigational drugs within 21 days of beginning study treatment with LOR-253 HCl. • 2. A hematologic malignancy. • 3. A history of brain or other central nervous system metastases. • 4. Have a presence of a significant infection. • 5. Clinically significant autoimmune disease. • 6. Uncontrolled intercurrent illness. • 7. With iron or copper overload syndromes. • 8. Pregnancy or breast feeding.

[7] = tested on: Kasumi-1; assay: Kasumi-1 AML xenograft model; assay type: in vivo, athymic nude mice; conditions: Kasumi-1 xenograft; 30 mg/kg (15 mg/kg twice per day) i.v., two consecutive days per week, four weeks; p=0.028 by Student's t-test; FIG. 15
Protocol: (§1) The anti-tumor activity of LOR-253 HCl was evaluated in another in vivo animal model of human AML. The human AML cell line Kasumi-1 was implanted subcutaneously into athymic nude mice. Some tumor-bearing mice were treated with LOR-253 HCl at 30 mg/kg (15 mg/kg twice per day) for two consecutive days per week for four weeks (the “LOR-253 treatment group”). LOR-253 was administered by intravenous (i.v.) bolus injection as the hydrochloric salt form (LOR-253-HCl) formulated in 20% Polyethylene Glycol 400, 10% Propylene Glycol, and 10% Solutol HS in 60% water.
(§2) The major endpoint was to observe for tumor growth inhibition after treatment with LOR-253 HCl and compare the anti-tumor effects of different dosing schedules. Tumor sizes were measured three times per week from day 10 after the tumor cell inoculation. Tumors were measured in three dimensions using calipers and the volume was expressed in millimeters cubed using the formula: V=0.5a×b×c, where a, b, and c are the length, width, and height of the tumor, respectively. Mean tumor volumes+/−standard error (SE) were calculated from each measurement and then plotted in a standard graph to compare the anti-tumor efficacy of drug treatment to that of control (FIG. 15). Toxicity was assessed by clinical observations and by measurement of mouse body weight in grams twice per week over the course of the study. […]

[8] = Toxicity assessment in Kasumi-1 tumor-bearing mice; conditions: 15 mg/kg twice per day i.v., two days per week, four weeks
Protocol: as §1, §2

[9] = tested on: HL-60; assay: HL-60 AML xenograft model; assay type: in vivo, athymic nude mice; conditions: HL-60 xenograft, 3 cycles, FIG. 17
Protocol: The human AML cell line HL-60 was implanted subcutaneously into athymic nude mice. Tumor-bearing mice were treated with LOR-253 HCl alone or in combination with azacitidine, with azacitidine alone, or with a negative control vehicle. The detailed treatment conditions are as follows. • Group 1: Negative control group. LOR-253 HCl control vehicle, 2×/day, 3 cycles of 2 consecutive days, 5 days between cycles, i.v., plus 1% D-mannitol every four days by s.c. injection • Group 2: Azacitidine (in 1% D-mannitol) at 10 mg/kg 1× on days 1, 4, 8, 11, 15 and 18 by subcutaneous (s.c.) injection • Group 3: LOR-253 HCl at 15 mg/kg bid for 3 cycles, each cycle is 2 consecutive days of dosing per week with 5 days of non-dosing, i.v., n=9 (2T-5B) • Group 4: LOR-253 HCl at 15 mg/kg 2×/day (bid) for 3 cycles, each cycle is 1 day of dosing per week with 6 days of non-dosing, i.v., n=9 (1T-6B) • Group 5: Combination of LOR-253 (2T-5B) and azacitidine. LOR-253 HCl at 15 mg/kg bid for 3 cycles, each cycle is 2 consecutive days of dosing per week with 5 days of non-dosing, i.v., n=9 (2T-5B) plus azacitidine at 10 mg/kg 1× every four days by s.c. injection • Group 6: Combination of LOR-253 (1T-6B) and azacitidine. […]
Tumor sizes were measured three times per week.

[10] = tested on: KG-1; assay: KG-1 AML xenograft model; assay type: in vivo, mice; conditions: KG-1 xenograft; 15 mg/kg-iv, bid, 2T/wk; FIG. 20
Protocol: Xenograft model mice for AML cell line KG-1 was generated with the same method as in Examples 14 and 15, and were treated with LOR-253 HCl or control according to the following regime.
LOR-253—15 mg/kg-iv, bid, 2T/wk—Day 1

[11] = tested on: THP-1; assay: THP-1 AML xenograft model; assay type: in vivo, mice; conditions: THP-1 xenograft; Group-2: i.v. Days 1, 2, 8, 9, 15, 16 and IP Days 22-25, 29, 30; FIG. 21
Protocol: The anti-tumor activity of LOR-253 HCl, as a single agent and in combination with azacitidine, was evaluated in yet another in vivo animal model of human AML. Xenograft model mice for AML cell line THP-1 was generated with the same method as in Examples 14 and 15, and were treated with LOR-253 HCl alone or in combination with azacitidine, with azacitidine alone, or with a negative control vehicle, and tumor sizes were measured as described in Examples 14 and 15. The detailed treatment conditions are shown as follows, and the results are shown in FIG. 21. • Group 1 Control: received i.v. treatments with LOR-253 control vehicle (CV) on Days 1, 2, 8, 9, 15 &16; received subcutaneous (SC) treatments with Azacitidine control vehicle on Days 1, 4, 8, 11, 15, 18, 22, 25, 29 &32; and received intraperitoneal (IP) treatments with LOR-253-CV on Days 22, 23, 24, 25, 29&30. • Group-2—LOR-253: received i.v. treatments on Days 1, 2, 8, 9, 15 &16; received IP treatments on Days 22, 23, 24, 25, 29&30 • Group-3—Azacitidine: received SC treatments on Days 1, 4, 8, 11, 15, 18, 22, 25, 29 &32. • Group-4—Combination: received i.v. treatments with LOR-253 on Days 1, 2, 8, 9, 15 &16; received IP treatments with LOR-253 on Days 22, 23, 24 &25; and received SC-treatment with Azacitidine on Days 1, 4, 8, 11, 15, 18, 22 &25

[12] = patients with advanced solid tumors, phase I

Row | Structure (SMILES) | serum level of LOR-253 [1] | cardiovascular effects [2] | inhibition of hERG tail current density [3] | inhibition of CYP450 enzymes [4] | blood compatibility of IV formulation [5] | safety profile ([6]; N=27 patients across 7 dose levels, phase I) | tumor response in single patient ([6]; patient with NSCLC (poorly differentiated adenocarcinoma) and extensive metastases refractory to prior therapies, FIG. 12) | RECIST partial response [6, 12] | most common AE and SAE [6, 12] | Stable Disease, share of evaluable patients ([6]; patients with advanced solid tumors, phase I, 7 dose levels) [%] | tumor growth inhibition vs vehicle control [7] | overt signs of toxicity (clinical observations) [8] | body weight ([8]; FIG. 16) | inhibition of tumor growth, single agent ([9]; Group 3: 15 mg/kg twice per day i.v., two consecutive days per week (2T-5B)) | inhibition of tumor growth, single agent ([9]; Group 4: 15 mg/kg twice per day i.v., one day per week (1T-6B)) | tumor growth inhibition, single agent [10] | inhibition of tumor growth, single agent [11]
1 | Cc1[nH]c2ccc(F)cc2c1-c1nc2c3cccnc3c3ncccc3c2[nH]1 [LOR-253] | dose related increase | no treatment-related cardiovascular effects | no significant inhibition | no significant inhibition | confirmed the suitability of IV formulation |  |  |  |  |  |  |  |  |  |  |  | 
2 | Cc1[nH]c2ccc(F)cc2c1-c1nc2c3cccnc3c3ncccc3c2[nH]1 [LOR-253 HCl] |  |  |  |  |  | Excellent Safety Profile | Tumor shrinkage | No RECIST PR | Fatigue and 1 case of reversible hypophosphatemia | 41 | significant tumor growth inhibition | did not show other overt signs of toxicity | did not show body weight loss | approximately the same extent as or slightly more than azacitidine alone | approximately the same extent as or slightly more than azacitidine alone | significant tumor growth inhibition | about the same extent as or slightly more than azacitidine alone
